This passage reports IC50 results from BindingDB's records for patent US12565497 (Hoffmann-La Roche, 2026).

As usually defined, the pIC50 is the negative decadic logarithm of the IC50, by convention in mol/L. High values mean a low IC50, low ones a high IC50.

pIC50: −log10 of the molar value.

Sequence of S-adenosylmethionine synthase isoform type-2 (P31153 whole entry, canonical isoform): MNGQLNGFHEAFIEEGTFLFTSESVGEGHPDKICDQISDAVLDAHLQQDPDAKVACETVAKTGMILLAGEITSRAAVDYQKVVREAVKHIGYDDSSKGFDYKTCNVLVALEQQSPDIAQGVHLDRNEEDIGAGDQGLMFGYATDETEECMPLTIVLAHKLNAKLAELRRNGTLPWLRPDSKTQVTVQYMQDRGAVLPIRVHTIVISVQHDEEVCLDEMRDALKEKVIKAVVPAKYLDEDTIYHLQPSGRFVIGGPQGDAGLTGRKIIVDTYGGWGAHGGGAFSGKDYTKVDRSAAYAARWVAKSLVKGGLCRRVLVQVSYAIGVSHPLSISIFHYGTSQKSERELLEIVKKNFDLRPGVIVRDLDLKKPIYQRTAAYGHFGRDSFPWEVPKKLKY

This assay addresses S-adenosylmethionine synthase isoform type-2 (Homo sapiens, UniProt P31153). Kind of assay: Determination of Mat2A Activity. Here is the method:
Measurement of Mat2A inhibition is performed in 384 well format absorbance-based assay. Recombinant human Mat2a (12.5 nM) and serial diluted compounds in DMSO (range of concentrations from 10 μM to 508 pM) or controls (DMSO) are incubated for 15 minutes at room temperature (RT) in assay buffer containing 50 mM HEPES pH 7.5, 50 mM KCl, 50 mM MgCl2, 0.01%Tween 20 and 10 mM DTT. The reaction is initiated by the addition of the combined substrates ATP and Methionine, each at a final concentration of 100 μM. Final assay condition are 12.5 nM Mat2A, 100 μM ATP and Methionine Substrates and 2% DMSO. After 120 minutes of incubation at RT, the reaction is stopped by the addition of Biomol Green. The absorbance signal is measured at λ=635 nm with a multiplate reader (BMG Pherastar reader or equivalent) after 30 min of equilibration at RT.
`Cc1cc(-c2c(S(C)(=N)=O)ccc3[nH]nc(C4CC4)c23)ccc1S(C)(=O)=O` (configuration not stated) [US12565497, Example 112] gave a pIC50 of 7.05.

Compound `COCCNC(=O)c1ncc2[nH]nc(OC(F)F)c2c1-c1ccc(S(=O)(=O)C(F)F)c(C)c1` [US12565497, Example 109] showed a negative-log IC50 (pIC50) of over 7.89.

Compound `Cc1cc(-c2c(C(=O)NC3CC3)ncc3[nH]nc(C4CC4)c23)ccc1S(C)(=O)=O` [US12565497, Example 86] gave a pIC50 of over 7.89.

Compound `Cc1cc(-c2c(S(C)(=O)=O)ccc3[nH]nc(OC(F)F)c23)ccc1S(C)(=O)=O` [US12565497, Example 49] had a negative-log IC50 (pIC50) of over 7.89.

As to `Cc1cc(-c2c(S(C)(=O)=O)ccc3[nH]nc(OC(F)F)c23)ccc1S(=O)(=O)C(F)F` [US12565497, Example 117], the pIC50 was over 7.89.

Turning to `Cc1cc(-c2c(C(=O)NC3COC3)ncc3[nH]nc(C4CC4)c23)ccc1S(C)(=O)=O` [US12565497, Example 84], the pIC50 was over 7.89.

For the compound `CCS(=O)(=O)c1ccc(-c2nccc3[nH]nc(C4CC4)c23)cc1C` [US12565497, Example 20], the pIC50 was 7.82.
